This is an account of results in ChEMBL document CHEMBL1201862, “PubChem BioAssay data set” (2004).

Among the test systems are OVCAR-8; NCI-H522; HCC 2998; OVCAR-4; SF-268; SNB-75; M14; SR; A549; UACC-62; MOLT-4; HL-60; Hs-578T; CCRF-CEM; DU-145; SF-295; OVCAR-3; Malme-3M; SK-MEL-2; UO-31.
Assay in all cases: inhibition of tumour cell growth, NCI panel, 48 h

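Assay format: 96-well plates, 48-hour exposure. Here, GI50 denotes the concentration required for 50% inhibition of growth.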 Active and inactive are the calls of the source. No stated cut-off is given here; in the data, active = GI50 up to about 1.1 µM and inactive = higher. Bounds are passed on as bounds.

As for `O=c1cc(-c2ccccc2)[nH]c2ccc(S)cc12`, the GI50 in the assay with OVCAR-8 was 31.7 µM (inactive); in the assay on NCI-H522, 21.7 µM (inactive); in the assay with HCC 2998, 21 µM (inactive); in the assay with OVCAR-4, 57.1 µM (inactive); in the assay on SF-268, 41.9 µM (inactive); with SNB-75 it was 24.6 µM (inactive). The GI50 in the assay on M14 was 25.9 µM (inactive); in the assay on SR, 30.8 µM (inactive); in the assay with A549, 52.1 µM (inactive); with UACC-62, 17.2 µM (inactive); with MOLT-4 it was 14.3 µM (inactive); in the assay with HL-60, 35.7 µM (inactive). Further, the GI50 in the assay on Hs-578T is 26.2 µM (inactive); in the assay on CCRF-CEM, 22.1 µM (inactive); with DU-145, 52.2 µM (inactive); in the assay on SF-295 it was 38.5 µM (inactive); in the assay on OVCAR-3, 28.6 µM (inactive); in the assay with Malme-3M, 27.5 µM (inactive).

Turning to `O=C1CSC(c2ccc(Cl)cc2)N1c1ccc(-n2c(-c3ccccc3)nc3ccccc3c2=O)cc1` (centres undefined), the GI50 in the assay with OVCAR-8 is > 100 µM (inactive); with NCI-H522 it was 25.9 µM (inactive); with HCC 2998 it was 34.5 µM (inactive); in the assay on SK-MEL-2 it was > 100 µM (inactive); in the assay on OVCAR-4, 12.9 µM (inactive); with SF-268, 88.1 µM (inactive). In addition, the GI50 with SNB-75 is 7.64 µM (inactive); in the assay with M14 it was > 100 µM (inactive); with UO-31 it was 5.48 µM (inactive); in the assay on SR, 77.4 µM (inactive); in the assay on A549 it was 60.8 µM (inactive); with UACC-62, 19.8 µM (inactive). Besides, the GI50 in the assay on MOLT-4 is 21.2 µM (inactive); with Hs-578T, 52.7 µM (inactive); in the assay with CCRF-CEM, 45.7 µM (inactive); in the assay on DU-145, > 10 µM (inactive); in the assay on SF-295 it was 46.1 µM (inactive); in the assay on OVCAR-3, > 100 µM (inactive). Further, the GI50 with Malme-3M is 48.9 µM (inactive).

For `CC(=O)OC1[C@@H](OC(C)=O)CN(OCc2ccccc2)C[C@H]1OC(C)=O` (some centres undefined), the GI50 in the assay on OVCAR-8, with NCI-H522, in the assay with HCC 2998, with SK-MEL-2, in the assay with OVCAR-4 and in the assay with SF-268 was > 100 µM (inactive) throughout. For the same molecule, the GI50 with SNB-75, with M14, in the assay on UO-31, in the assay on SR, in the assay on A549 and in the assay with UACC-62 was > 100 µM (inactive) each time. In addition, the GI50 in the assay with MOLT-4, with HL-60, with Hs-578T, in the assay with CCRF-CEM, in the assay on DU-145 and in the assay on SF-295 was > 100 µM (inactive) each time. Further, in the assay on OVCAR-3, the GI50 was > 100 µM (inactive).

For `COc1cc2c(cc1OC)C1C=NC(C2)c2cc(OC)c(OC)cc21` (centres undefined), the GI50 with OVCAR-8 was 96.2 µM (inactive); with NCI-H522, 46.3 µM (inactive); in the assay with HCC 2998, > 100 µM (inactive); in the assay with SK-MEL-2 it was > 100 µM (inactive); with OVCAR-4 it was > 100 µM (inactive); in the assay on SF-268, > 100 µM (inactive). Further, the GI50 is > 100 µM (inactive) in the assay with SNB-75; > 100 µM (inactive) in the assay with M14; 60.1 µM (inactive) in the assay on UO-31; 69.3 µM (inactive) in the assay with SR; 78.7 µM (inactive) with A549; > 100 µM (inactive) in the assay with UACC-62. Besides, the GI50 was 40.5 µM (inactive) in the assay with MOLT-4; 50.7 µM (inactive) in the assay with HL-60; > 100 µM (inactive) in the assay with Hs-578T; > 100 µM (inactive) with DU-145; > 100 µM (inactive) in the assay on SF-295; > 100 µM (inactive) in the assay with OVCAR-3.

Consider `COC(=O)c1ccccc1/C=C1\Cc2cc(C)cc(C)c2C1=O`, for which the GI50 with OVCAR-8 was > 100 µM (inactive); in the assay with NCI-H522, 5.46 µM (inactive); in the assay on HCC 2998, > 100 µM (inactive); with SK-MEL-2, > 100 µM (inactive); with SF-268, > 100 µM (inactive); with SNB-75, 72.4 µM (inactive). For the same molecule, the GI50 was > 100 µM (inactive) in the assay on SR; > 100 µM (inactive) in the assay with A549; 53.5 µM (inactive) in the assay with UACC-62; > 100 µM (inactive) in the assay with MOLT-4; > 100 µM (inactive) with HL-60; > 100 µM (inactive) in the assay on Hs-578T. Moreover, the GI50 in the assay on CCRF-CEM, with DU-145, in the assay on SF-295, in the assay on OVCAR-3 and in the assay with Malme-3M was > 100 µM (inactive) throughout.

As for `CCN(CC)/[N+]([O-])=N/OS(=O)(=O)N(C)C`, the GI50 with OVCAR-8, in the assay with NCI-H522, in the assay on HCC 2998, in the assay on OVCAR-4, in the assay on SF-268 and with SNB-75 was > 100 µM (inactive) throughout. Also, the GI50 in the assay on M14, in the assay with SR, with A549, with UACC-62, in the assay with MOLT-4 and in the assay on HL-60 was > 100 µM (inactive) throughout. Moreover, the GI50 in the assay with Hs-578T, with CCRF-CEM, with DU-145, in the assay on SF-295, in the assay on OVCAR-3 and in the assay on Malme-3M was > 100 µM (inactive) throughout.

As for `O=C(NC1(c2cc3ccccc3s2)CCCCC1)C1CCC1`, the GI50 with OVCAR-8 is 66.4 µM (inactive); in the assay on NCI-H522, > 100 µM (inactive); in the assay with HCC 2998, > 100 µM (inactive); with SK-MEL-2 it was > 100 µM (inactive); in the assay with OVCAR-4, 97.5 µM (inactive); in the assay with SNB-75, 46.7 µM (inactive). Further, the GI50 with M14, in the assay with UO-31, in the assay on SR, in the assay on A549, with UACC-62 and in the assay on MOLT-4 was > 100 µM (inactive) in each case. For the same molecule, the GI50 in the assay on HL-60 is > 100 µM (inactive); with Hs-578T, 37.1 µM (inactive); in the assay on CCRF-CEM it was > 100 µM (inactive); in the assay with DU-145, > 100 µM (inactive); in the assay with SF-295 it was > 100 µM (inactive); in the assay with OVCAR-3, > 100 µM (inactive). Also, the GI50 in the assay on Malme-3M was > 100 µM (inactive).

In the case of `O=c1cc(-c2ccccc2)[nH]c2ccc(N3CCCC3)cc12`, the GI50 with OVCAR-8 is 0.0365 µM (active); in the assay on NCI-H522 it was < 0.01 µM (active); in the assay on HCC 2998, 0.172 µM (active); in the assay on SK-MEL-2, 0.0484 µM (active); with SF-268 it was 0.173 µM (active); in the assay with SNB-75 it was 40.6 µM (inactive). Moreover, the GI50 is < 0.0123 µM (active) in the assay with M14; > 100 µM (inactive) in the assay on UO-31; 0.0184 µM (active) in the assay with SR; 0.0555 µM (active) with A549; < 0.01 µM (active) in the assay on UACC-62; 0.0794 µM (active) in the assay on MOLT-4. Moreover, the GI50 is < 0.01 µM (active) in the assay on HL-60; < 0.0173 µM (active) in the assay with Hs-578T; < 0.0149 µM (active) with CCRF-CEM; 0.0459 µM (active) in the assay on DU-145; < 0.01 µM (active) in the assay on SF-295; 0.0272 µM (active) in the assay on OVCAR-3. Further, in the assay with Malme-3M, the GI50 was > 100 µM (inactive).

As for `O=C1OC(c2ccccc2)=N/C1=C\c1ccc(Br)cc1`, the GI50 in the assay with OVCAR-8, with NCI-H522, in the assay on HCC 2998, with SK-MEL-2, with OVCAR-4 and in the assay with SF-268 was > 100 µM (inactive) each time. The GI50 was > 100 µM (inactive) in the assay on SNB-75; > 100 µM (inactive) with M14; 66.2 µM (inactive) in the assay on SR; > 100 µM (inactive) with A549; > 100 µM (inactive) with UACC-62; 94 µM (inactive) with MOLT-4. In addition, the GI50 in the assay with HL-60 was > 100 µM (inactive); in the assay with Hs-578T, > 100 µM (inactive); in the assay with CCRF-CEM, 26.4 µM (inactive); in the assay with DU-145, > 100 µM (inactive); in the assay on SF-295, > 100 µM (inactive); in the assay on OVCAR-3 it was > 100 µM (inactive). Also, the GI50 with Malme-3M is 74.8 µM (inactive).

For `Cc1nn(-c2ccccn2)c2c1C(SC#N)=C(C=O)CC2`, the GI50 in the assay with OVCAR-8 was 15.9 µM (inactive); in the assay on NCI-H522 it was 19.5 µM (inactive); with HCC 2998 it was 11.9 µM (inactive); with SK-MEL-2 it was 16.9 µM (inactive); in the assay with SF-268, 16.5 µM (inactive); in the assay on SNB-75, 15.3 µM (inactive). For the same molecule, the GI50 in the assay with M14 was 15.8 µM (inactive); in the assay on UO-31, 14.6 µM (inactive); with SR it was 10.1 µM (inactive); in the assay on A549, 14.8 µM (inactive); with UACC-62, 5.71 µM (inactive); with MOLT-4, 2.57 µM (inactive). Moreover, the GI50 in the assay with HL-60 is 3.55 µM (inactive); in the assay on Hs-578T it was 33.7 µM (inactive); in the assay with CCRF-CEM, 2.12 µM (inactive); with DU-145, 14.9 µM (inactive); in the assay on SF-295, 30.3 µM (inactive); in the assay with OVCAR-3, 12.3 µM (inactive). Moreover, the GI50 in the assay on Malme-3M is 18.3 µM (inactive).

In the case of `Cn1c(=O)c2[nH]c(N/N=C3/SCC(=O)N3Cc3ccccc3)nc2n(C)c1=O`, the GI50 is > 100 µM (inactive) with OVCAR-8; 50.8 µM (inactive) in the assay on NCI-H522; > 100 µM (inactive) with HCC 2998; 42.8 µM (inactive) in the assay with SK-MEL-2; 41.6 µM (inactive) in the assay with OVCAR-4; 33.3 µM (inactive) in the assay with SF-268. Also, the GI50 in the assay with M14 is 44.3 µM (inactive); in the assay on UO-31 it was > 100 µM (inactive); in the assay on SR it was 24.9 µM (inactive); with A549 it was > 100 µM (inactive); in the assay on UACC-62, > 100 µM (inactive); in the assay on MOLT-4, 29 µM (inactive). The GI50 in the assay with HL-60 was 69.5 µM (inactive); in the assay with Hs-578T, 17.1 µM (inactive); in the assay with CCRF-CEM, 22.1 µM (inactive); in the assay on DU-145, 65.6 µM (inactive); in the assay on SF-295, 21.2 µM (inactive); with OVCAR-3, 74.5 µM (inactive). The GI50 with Malme-3M is 52.5 µM (inactive).
